# Literature values, collected in patent US20250169750A1 (HEMOLENS DIAGNOSTICS SP. Z O.O., priority 2022, published 2025).
# Legend:
# A2A adenosine receptors = A2A adenosine receptors (Homo sapiens, UniProt P29274)
# [1] = system: coronary vascular responsiveness to adenosine; conditions: for coronary conductance change / systemic pressure change: dog, in vivo
# A2A adenosine receptors, sequence (P29274 whole entry): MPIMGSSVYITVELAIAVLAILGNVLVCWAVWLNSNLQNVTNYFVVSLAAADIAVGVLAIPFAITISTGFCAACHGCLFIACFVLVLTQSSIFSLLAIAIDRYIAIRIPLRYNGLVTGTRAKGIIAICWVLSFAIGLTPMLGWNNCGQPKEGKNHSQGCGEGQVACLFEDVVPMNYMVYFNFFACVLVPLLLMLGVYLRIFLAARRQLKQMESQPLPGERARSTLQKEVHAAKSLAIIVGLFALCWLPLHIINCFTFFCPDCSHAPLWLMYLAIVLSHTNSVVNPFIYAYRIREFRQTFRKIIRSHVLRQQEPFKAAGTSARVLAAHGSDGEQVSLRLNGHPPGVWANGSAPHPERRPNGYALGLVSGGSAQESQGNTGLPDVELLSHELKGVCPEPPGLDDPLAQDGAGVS
smiles,measurement,setting,value
Nc1nc(N/N=C/C2CCCCC2)nc2c1ncn2[C@@H]1O[C@H](CO)[C@@H](O)[C@H]1O [Binodenoson],affinity to an Adenosine receptor (comparison),A2A adenosine receptors; APA vs BND,equal
same,duration of the action,A2A adenosine receptors; intravenous bolus,less than 5 minutes
COc1ccc(Cl)cc1C(=O)NCCc1ccc(S(=O)(=O)NC(=O)NC2CCCCC2)cc1 [Glibenclamide],change of Adenosine ED50,[1]; after Glibenclamide administration,increased dose-dependently
same,coronary conductance change,[1],reduction in coronary conductance
same,systemic pressure change,[1],increase in systemic pressure
"COC(=O)[C@@H](N)CCCNC(=N)N[N+](=O)[O-] [L-NAME, N^ω-Nitro-L-arginine methyl ester]",change of Adenosine plasma concentration needed to reach 50% of maximal conductivity increase (ED50),"[1]; after 1 mg/kg or 10 mg/kg of L-NAME, vs basal condition",increased three times
same,coronary conductance change,[1],reduction in coronary conductance
same,systemic pressure change,[1],increase in systemic pressure
CNC(=O)c1cnn(-c2nc(N)c3ncn([C@@H]4O[C@H](CO)[C@@H](O)[C@H]4O)c3n2)c1 [Regadenoson],"stress myocardial blood flow (MBF), comparison","400 μg bolus vs Dipyridamole 0.56 mg/kg or Adenosine 140 μg/kg/min, 15 healthy volunteers",higher values
same,"heart rate (HR), comparison",400 μg bolus vs Dipyridamole or Adenosine,higher values
same,"stress MBF adjusted to HR, comparison",Regadenoson vs Adenosine,no differences between Adenosine and Regadenoson
same,"stress MPR adjusted to HR, comparison",Regadenoson vs Adenosine,no differences between Regadenoson and Adenosine
same,"unadjusted myocardial perfusion reserve (MPR), comparison",vs Adenosine and Dipyridamole,higher
